For one series, the target named is T1, NMT2 (Homo sapiens, UniProt O60551).
T1 construct: homemade monoclonal antibodies AF-700-NMT1(clone 6F8D5) and APC-NMT2 (clone 6C5E8); endogenous in cells; host or cells: patient peripheral blood mononuclear cells (CD4+, CD8+, CD19+, CD14+ populations)
T1 sequence (O60551 1-498): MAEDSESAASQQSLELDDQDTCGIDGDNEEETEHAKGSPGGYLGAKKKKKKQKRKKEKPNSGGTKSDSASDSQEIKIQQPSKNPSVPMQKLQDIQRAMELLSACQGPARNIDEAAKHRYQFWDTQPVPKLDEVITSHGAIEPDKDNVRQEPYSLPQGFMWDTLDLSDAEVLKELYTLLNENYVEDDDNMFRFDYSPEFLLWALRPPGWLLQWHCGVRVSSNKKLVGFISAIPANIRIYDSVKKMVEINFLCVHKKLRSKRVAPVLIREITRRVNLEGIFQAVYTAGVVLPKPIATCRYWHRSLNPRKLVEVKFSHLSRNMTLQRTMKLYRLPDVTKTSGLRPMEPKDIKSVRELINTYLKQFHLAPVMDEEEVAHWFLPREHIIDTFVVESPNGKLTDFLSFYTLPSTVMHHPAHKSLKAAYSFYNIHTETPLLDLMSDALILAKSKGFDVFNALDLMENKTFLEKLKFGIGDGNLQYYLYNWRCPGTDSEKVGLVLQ
Put plainly: Flow cytometry of intracellular NMT2 level in PBMC populations. Type of series: in vivo. The procedure: (§1) Peripheral blood was collected from the patient at each sampling point (Screen, Day 1, and Day 28 of treatment) by venipuncture according to normal phlebotomy practice in 2 × 8 mL BD Vacutainer® CPT™ Tubes. Samples were immediately mixed by gentle inversion 10 times and process for PBMC isolation within 1 h. After centrifugation (1800× g for 20 min) at room temperature (18–25 °C) in a swinging bucket rotor (swing-out head), the mononuclear cells and platelets (referred to as PBMC) were carefully collected as the whitish layer just above the polyester gel and under the plasma layer, transferred into 9 mL freezing media (8 mL Fetal Bovine Serum and 1 mL DMSO), and stored at −70 °C or below until flow cytometry analysis.
(§2) PBMC were recovered by centrifugation (400× g for 5 min), washed in RPMI culture media, resuspended in PBS, and prepared for FACS analysis. PBMC were first labeled with Zombie Aqua™ Fixable Viability kit (1/100, 20 min at 4 °C; BioLegend, San Diego, CA, USA) for exclusion of dead cells, blocked with Human TruStain FcX Fc receptor blocking solution (5/100, 10 min at room temperature, BioLegend), then stained for extracellular markers using antibodies ECD-CD3 (clone UCHT1) and PE-Cy7-CD4 (clone SFCI12T4D11) from Beckman Coulter (Missaugua, ON, Canada) PerCp-Cy5.5-CD8 (SK-1) and BV-785CD19 (clone HIB19) from BioLegend, and PE-CF594-CD14 (clone MΦPG) from BD Bioscience (Mississauga, ON, Canada) for 20 min at 4 °C. The cells were then fixed and permeabilized using the eBioscience Intracellular Fixation and Permeabilization buffer set (Invitrogen, Mississauga, ON, Canada) and stained for intracellular markers AF-488-HGAL (clone 1H1-A7, eBioscience), AF-488-Lyn (Lyn-01, ab1890, Abcam, Cambridge, UK), and homemade monoclonal antibodies AF-700-NMT1(clone 6F8D5) and APC-NMT2 (clone 6C5E8), as previously described, in parallel with relevant isotype controls for at least 30 min at 4 °C. Prior to applying in the test, intracellular antibodies were first labeled with different fluorochromes using Lightning-Link conjugation kits (Abcam) and titrated to achieve the best concentration. Finally, samples were acquired on a Fortessa X-20 flow cytometer (BD Bioscences, Faculty of Medicine and Dentistry Flow Cytometry Facility, University of Alberta). Data were analyzed using FlowJo software (TreeStar, Ashland, OR, USA, version 10.8).
In general terms: A flow cytometer gives signals particle by particle.

Series [1] concerns relapsed diffuse large B-cell lymphoma. Put plainly: Efficacy assessment by imaging (Lugano classification criteria). The class given is in vivo, human. Particulars: patient, 20 mg oral daily, CT on day 29. From the text: The subject had baseline cross-sectional and PET imaging. Protocol-defined imaging was CT every 2 cycles and PET every 6 cycles or as clinically indicated. Evaluation of response was by the Lugano classification criteria for the evaluation of non-Hodgkin lymphoma.

Series [2] has as its system Bruton tyrosine kinase (BTK). Details: method as in PMID 33093447. The following applies: models of human lymphoma; cited from earlier work.
A short description of series [3]: Toxicity assessment in phase I trial (CTCAE version 5.0, DLT). The class given is in vivo, human. Particulars: patient, 20 mg oral daily. The procedure:
The subject was assessed for toxicity using daily diary entries, clinical assessments at baseline, day 8, day 15, day 22, and day 28. Dose-limiting toxicities (DLTs) were defined as the following cycle 1 CTCAE version 5.0 adverse events: Gr 4 platelets, Gr ≥ 3 platelets with bleeding and/or transfusions, Gr 4 ANC for ≥ 7 days, Gr ≥ 3 febrile neutropenia, and Gr ≥ 3 non-hematological toxicity.

The subject of another series is Lyn. Details: method as in PMID 33093447. The following applies: multiple Burkitt Lymphoma and Diffuse Large B cell lymphoma cell lines; cited from earlier work.
Series [4] concerns hematologic and lymphoma cell lines. Details: method as in PMID 33093447. Particulars: tissue culture; cited from earlier work.
The test system of series [5] is T cells, B cells, and monocyte population. Kind of series: Flow cytometry of live PBMC populations in the treated patient. The class given is in vivo, human. Here is the method: as §1, §2
The conditions of series [6]: animal models; cited from earlier work.

Entries after “also recorded” stand apart in the source; their conditions may differ.

For `Cc1c(NS(=O)(=O)c2c(Cl)cc(-c3ccnc(N4CCNCC4)c3)cc2Cl)c(CC(C)C)nn1C` [PCLX-001, 2,6-dichloro-N-(3-isobutyl-1,5-dimethyl-1H-pyrazol-4-yl)-4-(2-(piperazin-1-yl)pyridin-4-yl)benzenesulfonamide], on NMT2 (20 mg daily, 28 days, all cell populations with the exception of monocytes), the “change of NMT2 protein level in circulating blood mononuclear cells” value is reported as “no clear change; also recorded: very stable”. Besides, the “NMT2 intracellular level, % of population ± CV, Day 28” value on NMT2 (CD4+ T cells, untreated: Screening 22.8, Day 1 25.7) is reported as 35.3 ± 0.36%; on NMT2 (CD8+ T cells, untreated: Screening 11, Day 1 12.7), 18.7 ± 0.33%; on NMT2 (CD14+ Monocytes, untreated: Screening 6.21, Day 1 6.7) it was 11.7 ± 0.17%; at NMT2 (CD19+ B cells, untreated: Screening 31.8, Day 1 29) it was 33.3 ± 0.24%. Moreover, the “change of NMT2 protein level in monocytes” value on NMT2 (end of the first cycle) is listed as “increased”. In addition, the “response of lymphoma (Lugano classification criteria)” value in series [1] is given as “disease progression; also recorded: progression of the volume of lymphoma”. Further, in series [2], the “BTK modification and downstream signaling” value is given as “profoundly inhibited”. In series [3] (28-day cycle), the dose-limiting toxicities entry was “did not experience any dose-limiting toxicities; also recorded: no protocol-defined dose-limiting toxicities”. Also, the “hematopoietic profile and biochemistry” value in series [3] (throughout the trial) is “remained normal; also recorded: no evidence of toxicity to hematopoietic function, liver function, or kidney function”. Besides, in the series on Lyn, the “Lyn protein level in vitro” value is “significantly decreased”. Besides, the “inhibition of hematologic and lymphoma cell lines” value in series [4] was “markedly inhibits”. Besides, the “effect on live T cell, B cell and monocyte populations” value in series [5] (28 days of PCLX-001 treatment, 20 mg daily) is reported as “only marginally affected”. Moreover, the “CD19+ B cells, % of population ± CV, Day 28” value in series [5] (live PBMC, 28 days of 20 mg daily, untreated: Screening 0.71, Day 1 1.18) is given as 0.59 ± 0.50%. In addition, the “CD14+ monocytes, % of population ± CV, Day 28” value in series [5] (live PBMC, 28 days of 20 mg daily, untreated: Screening 5.01, Day 1 14.2) turned out to be 4.51 ± 0.42%. The “CD8+ T cells, % of population ± CV, Day 28” value in series [5] (live PBMC, 28 days of 20 mg daily, untreated: Screening 25.1, Day 1 23.1) is reported as 22.5 ± 0.31%. In series [5] (live PBMC, 28 days of 20 mg daily, untreated: Screening 40.2, Day 1 42.5), the “CD4+ T cells, % of population ± CV, Day 28” value is 46.8 ± 0.22%. Further, the “Total T cells (CD3+), % of population ± CV, Day 28” value in series [5] (live PBMC, 28 days of 20 mg daily, untreated: Screening 66.6, Day 1 66.7) is 70.1 ± 0.50%. In series [6], the oral bioavailability entry was “complete oral bioavailability”.
